Reference: US12686657B2, “Anti-inflammatory carboxamide derivatives” (BIOMEDCODE HELLAS SA, priority 2021, dated 2026)
Where two headings read alike, the source gives them in different places.

Experiments:
hTNF-activated wt SFs = experiment: CCL5 and CCL20 ELISA on hTNF-activated wild type synovial fibroblasts; assay type: cell-based, mice
Source text: Primary SFs were derived from a) human TNF transgenic (hTNFTg) mice (Keffer et al., 1991) as well as from b) CBA/C57BL6 wild type mice.
By testing the compounds in a) and b) we accessed their effect on the activated SFs phenotype caused by both the endogenous hTNF upregulation and the exogenous hTNF administration. In this way it was confirm the ability of the compounds of the invention to act in the TNF pathway directly downstream of TNF.
SFs were isolated as previously described by Armaka et al., 2009, from the ankle joints of hTNFtg or CBA/C57BL6 wild type (wt) littermates. Briefly, ankle joints were digested with Collagenase IV (Sigma Aldrich, C5138) for 45 minutes at a 37° C. shaking waterbath and after 5 days in culture at 37° C. and 5% CO2, a depletion of CD45+ lineage cells was performed using a Biotin anti-mouse CD45 Antibody (Biolegend, 103104) and Dynabeads™ Biotin Binder (ThermoFisher 11047), according to the manufacturer's protocol. After 10 days in culture, SFs were seeded overnight (O/N) at a concentration of 2×10^4 cells/well in a 96 well plate in 1×DMEM, supplemented with 100 U/ml Penicillin Streptomycin (P/S) and 10% Fetal Bovine Serum (FBS). The next day the cells were synchronized by starvation that included their O/N plating in low serum medium (0.5% FBS). Following the O/N starvation, the hTNFg and the WT SFs were treated with different concentrations of the experimental compounds. The SFs were at the same time activated with 10 ng/ml hTNF (Peprotech, 300-01A). 48 h following the treatment the cell culture supernatants were collected and analyzed by ELISA (R&S Systems, Duoset, DY478 and DY760) according to the manufacturer's protocol, for the detection of CCL5/Rantes and CCL20/Mip3, two known inflammatory chemokines. The IC50 values were determined as the concentration of the compounds required to reduce the levels of secreted CCL5 and CCL20 by 50%.
In order to determine the efficiency of the compounds of the invention, the same protocol was repeated with some minor modifications. Mainly, the concentration of hTNF was 10-fold reduced, i.e., adjusted to 1 ng/ml, and the SFs were seeded overnight at a concentration of 10^4 cells/well.
Table 7 summarizes the reduction of CCL5 and CCL20 levels achieved with the test compounds of the invention. Data are presented as percentages of the chemokine levels detected in treated cells compared to 100% levels of the chemokines detected in the untreated cells.
Table 8 summarizes the values of IC50 and toxicity for the test compounds of the invention. Dose response curves regarding the WT SFs were produced with 10 ng/ml hTNF stimulation for all compounds, with the exception of the compounds E and F, where WT cells were induced using hTNF at 1 ng/ml: […]

C57BL/6J mice = experiment: In vivo LPS acute systemic inflammation model, serum cytokines and chemokines (Legendplex); set-up: key to IL-1β in sera, Average / IL-17A in sera, Average / IL-27 in sera, Average / GM-CSF in sera, Average / KC in sera, Average / MCP1 in sera, Average / IP-10 in sera, Average / MIP-1A in sera, Average / MIP-1B in sera, Average / MDC in sera, Average / IL-23 in sera, Average / TNF-α in sera, Average: serum concentration in pg/ml; IL12p70 in sera, Average / IFN-γ in sera, Average: unit: pg/ml; conditions: 1 μg LPS i.p.
Method: In order to evaluate in vivo the anti-inflammatory effect of the test compounds a model of in vivo LPS acute systemic inflammation was used where C57BL/6J mice were challenged by administration of 1 μg LPS. Each one of the compounds 51 to 53 was administered to C57BL/6J mice per os in two doses of 50 mg. Two hours after administering the first dose, the animals received the second p.o. dose of each compound and were also challenged with 1 μg LPS intraperitoneally. Sera samples were collected 1.5 hrs post induction in order to measure the levels of 13 cytokines using the pro-inflammatory panel from Legendplex (cat no 740446) and following manufacturer's instructions. Four biological replicates were performed and the average and SEM were calculated with the obtained results.
The same protocol was followed but administering compound 53 at 100 mg/kg. In this case both the levels of the 13 cytokines but also of 13 chemokines were measured, using the pro-inflammatory panel from Legendplex (cat no 740007).
The anti-inflammatory effect of the test compounds 51, 52 and 53 was assessed in vivo in the LPS model of acute inflammation. Administration of the endotoxin Lipopolysaccharide (LPS) to mice induces acute inflammatory responses similar to the inflammatory response that occurs during the early stages of septic shock. Shortly after administration of the endotoxin, cytokines and chemokines are released. This model is fast, cost-effective and widely used for screening of anti-inflammatory properties of test items aimed for treatment of a number of inflammatory and autoimmune conditions (Seemann et al., 2017; Stortz et al., 2017).
Sera samples from the treated mice with the 50 mg/Kg doses of the test compounds 51-53 were evaluated using the mouse pro-inflammatory panel of Legendplex and the data acquired are presented as pg/ml in Table 11. Vehicle, 52 and 53 were tested in quadruplicates (vehicle_1-4), 51 in triplicate (51_1-3).
Sera samples from the treated mice with test compounds 53 with 100 mg/Kg were also evaluated using the mouse pro-inflammatory cytokine and chemokine panel of Legendplex and the effect of compound 53 at a higher dose (100 mg/kg) in inhibiting inflammatory cytokines and chemokines is presented in the Table 12 below.

[1] = 1 ng/mL hTNF, compound 10 μM, 48 h
[2] = 1 ng/mL hTNF, compound 50 μM, 48 h
[3] = 10 ng/mL hTNF, compound 10 μM, 48 h
[4] = 10 ng/mL hTNF, compound 50 μM, 48 h
[5] = Mus musculus, Fibroblast, 10 ng/ml hTNF stimulation, read-out: IC50 (μM) CCL5 WT
[6] = Mus musculus, Fibroblast, 10 ng/ml hTNF stimulation, read-out: IC50 (μM) CCL20 WT
[7] = 50 mg/Kg per os, two doses, sera 1.5 hrs post induction
[8] = 1 ng/mL hTNF, compound 25 μM, 48 h
[9] = 10 ng/mL hTNF, compound 25 μM, 48 h
[10] = Mus musculus, Fibroblast, hTNF at 1 ng/ml, read-out: IC50 (μM) CCL5 WT
[11] = Mus musculus, Fibroblast, hTNF at 1 ng/ml, read-out: IC50 (μM) CCL20 WT

Structure (SMILES)	CCL5 WT, percentage of level in untreated cells (hTNF-activated wt SFs; [1])	CCL20 WT, percentage of level in untreated cells (hTNF-activated wt SFs; [1])	CCL5 WT, percentage of level in untreated cells (hTNF-activated wt SFs; [2])	CCL20 WT, percentage of level in untreated cells (hTNF-activated wt SFs; [2])	CCL5 WT, percentage of level in untreated cells (hTNF-activated wt SFs; [3])	CCL20 WT, percentage of level in untreated cells (hTNF-activated wt SFs; [3])	CCL5 WT, percentage of level in untreated cells (hTNF-activated wt SFs; [4])	CCL20 WT, percentage of level in untreated cells (hTNF-activated wt SFs; [4])	IC50 (hTNF-activated wt SFs; [5])	IC50 (hTNF-activated wt SFs; [6])	IL-1α in sera, Average (C57BL/6J mice; [7])	IL-1β in sera, Average (C57BL/6J mice; [7])	IL-6 in sera, Average (C57BL/6J mice; [7])	IL-10 in sera, Average (C57BL/6J mice; [7])	IL-17A in sera, Average (C57BL/6J mice; [7])	MCP-1 in sera, Average (C57BL/6J mice; [7])	CCL5 WT, percentage of level in untreated cells (hTNF-activated wt SFs; [8])	CCL20 WT, percentage of level in untreated cells (hTNF-activated wt SFs; [8])	CCL5 WT, percentage of level in untreated cells (hTNF-activated wt SFs; [9])	CCL20 WT, percentage of level in untreated cells (hTNF-activated wt SFs; [9])	also measured
COc1cc(N)c(Cl)cc1C(=O)NCC1(c2ccc(Cl)cc2)CCCCC1 [Compound 51, 4-amino-5-chloro-N-((1-(4-chlorophenyl)cyclohexyl)methyl)-2-methoxybenzamide]	54%	63%	20%	35%	67%	14%	39%	5%	10.4 µM	3 µM	27.4 pg/mL	87.0 pg/mL	4702.5 pg/mL	1774.5 pg/mL	43.8 pg/mL	4689.1 pg/mL					
COc1cc(N)c(Cl)cc1C(=O)NCC1(c2ccc(Cl)cc2)CCCCCC1 [Compound 52, 4-amino-5-chloro-N-((1-(4-chlorophenyl)cycloheptyl)methyl)-2-methoxybenzamide]	48%	45%	22%		27%	15%	14%		1.4 µM	1.5 µM	43.1 pg/mL	118.5 pg/mL	3988.8 pg/mL	1692.2 pg/mL	27.7 pg/mL	4916.5 pg/mL					activity at 50 µM (hTNF-activated wt SFs; Mus musculus, Fibroblast, 48 h, 1 ng/mL hTNF, compound 50 μM, 48 h, read-out: CCL20 WT, percentage of level in untreated cells): 17%
COc1cc(N)c(Cl)cc1C(=O)NCC1(Nc2ccc(Cl)cc2)CCCCCC1 [Compound 53, 4-amino-5-chloro-N-((1-((4-chlorophenyl)amino)cycloheptyl)methyl)-2-methoxybenzamide]	16%	26%	8%	9%	35%	15%	26%	8%	2.9 µM	2.3 µM	67.3 pg/mL	113.1 pg/mL	5145 pg/mL	2616.1 pg/mL	55.1 pg/mL	5149 pg/mL					GM-CSF in sera, Average (C57BL/6J mice; 100 mg/kg p.o.): 9.8; IFN-γ in sera, Average (C57BL/6J mice; 100 mg/kg p.o.): 6.7; IL12p70 in sera, Average (C57BL/6J mice; 100 mg/kg p.o.): 5.7; IL-1β in sera, Average (C57BL/6J mice; 100 mg/kg p.o.): 12.4; IL-17A in sera, Average (C57BL/6J mice; 100 mg/kg p.o.): 3.7; IL-23 in sera, Average (C57BL/6J mice; 100 mg/kg p.o.): 16.6; IL-27 in sera, Average (C57BL/6J mice; 100 mg/kg p.o.): 16.1; IP-10 in sera, Average (C57BL/6J mice; 100 mg/kg p.o.): 45.2; KC in sera, Average (C57BL/6J mice; 100 mg/kg p.o.): 4227.5; MCP1 in sera, Average (C57BL/6J mice; 100 mg/kg p.o.): 1246.2; MDC in sera, Average (C57BL/6J mice; 100 mg/kg p.o.): 56.6; MIP-1A in sera, Average (C57BL/6J mice; 100 mg/kg p.o.): 244.3; MIP-1B in sera, Average (C57BL/6J mice; 100 mg/kg p.o.): 1301.1; TNF-α in sera, Average (C57BL/6J mice; 100 mg/kg p.o.): 136.8
COc1cc(N)c(Cl)cc1C(=O)NCC1(Nc2ccc(F)cc2Cl)CCCCCC1 [E, 4-amino-5-chloro-N-((1-((2-chloro-4-fluorophenyl)amino)cycloheptyl)methyl)-2-methoxybenzamide]	0%	2%			13%	5%											0%	3%	11%	2%	IC50 (hTNF-activated wt SFs; [10]): 0.59 µM; IC50 (hTNF-activated wt SFs; [11]): 0.167 µM
COc1cc(N)c(Cl)cc1C(=O)NCC1(Nc2cccc(OC(F)(F)F)c2)CCCCCC1 [F, 4-amino-5-chloro-2-methoxy-N-((1-((3-(trifluoromethoxy)phenyl)amino)cycloheptyl)methyl)benzamide]	0%				12%												0%	7%	9%	10%	IC50 (hTNF-activated wt SFs; [10]): 0.09 µM; IC50 (hTNF-activated wt SFs; [11]): 0.129 µM
